Assay results from paper PMC9041313 (RSC Advances, 2021).

Biological target: T1, human MAGL (hMAGL) (Homo sapiens, UniProt Q99685)
T1 sequence (Q99685 1-303): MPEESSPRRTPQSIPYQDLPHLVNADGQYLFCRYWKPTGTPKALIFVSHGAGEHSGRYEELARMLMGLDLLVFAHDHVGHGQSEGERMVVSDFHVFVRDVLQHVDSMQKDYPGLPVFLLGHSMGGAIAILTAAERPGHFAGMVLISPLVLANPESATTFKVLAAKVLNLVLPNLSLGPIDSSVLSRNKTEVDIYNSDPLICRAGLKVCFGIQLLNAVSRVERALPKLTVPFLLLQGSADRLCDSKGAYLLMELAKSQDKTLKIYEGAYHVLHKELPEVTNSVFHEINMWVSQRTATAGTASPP
Experiment: Human MAGL assay
Type: biochemical
Details: 10 μM compound concentration

8-prenylnaringenin [NP-2]
inhibition% against hMAGL: over 40%
